According to paper PMC9598926, “Design and Synthesis of (Z)-5-(Substituted benzylidene)-3-cyclohexyl-2-thioxothiazolidin-4-one Analogues as Anti-Tyrosinase and Antioxidant Compounds: In Vitro and In Silico Insights” (Antioxidants, 2022):

How the values were obtained:
[1] = DPPH radical scavenging activity assay; details: test sample 500 µM, DPPH 0.18 mM, 30 min in the dark
Procedure: 2.11. DPPH Radical Scavenging Activity Assay
The DPPH radical scavenging activities of analogs 1–8 were investigated as previously described with minor modification. L-Ascorbic acid was used as a positive control. In brief, 20 µL of analogs (5 mM) in DMSO or 5 mM L-ascorbic acid in distilled water were mixed with 180 µL of 0.2 mM DPPH in methanol in a 96-well microplate. After the microplate had been stored in the dark for 30 min, optical densities (ODs) were measured at 517 nm using a microplate reader (VersaMax®, Molecular Devices, Sunnyvale, CA, USA). DPPH radical scavenging activities were determined using the following formula:DPPH radical scavenging activity (%) = 100 × (Ac − As)/Ac(1) where Ac indicates the optical density of the non-treated control and As indicates the optical density of test sample. Experiments were conducted independently 3 times.
There is a possibility that compounds with antioxidant properties inhibit the oxidations of tyrosinase substrates, such as L-tyrosine and L-dopa, without interacting with the tyrosinase. Melanin production requires many oxidative processes, including the conversion of L-tyrosine to dopaquinone via L-dopa. Therefore, compounds with antioxidant activity have the potential to inhibit melanogenesis. DPPH (2,2-diphenyl-1-picrylhydrazyl) contains a free radical, and DPPH assays are commonly used to assess antioxidant activity. In this experiment, L-ascorbic acid (an antioxidant) was used as a positive control. The assay was conducted at a test sample and L-ascorbic acid concentration of 500 µM and a DPPH concentration of 0.18 mM. After standing test sample/DPPH mixtures for 30 min in the dark, optical densities were measured to evaluate radical scavenging activities.

mushroom tyrosinase = test: Mushroom tyrosinase inhibition in the presence of L-dopa; type: biochemical; details: L-dopa as substrate
[2] = Peroxynitrite (ONOO−) scavenging activity assay (DHR 123, SIN-1); details: SIN–1 10 µM; 5, 10, 20 µM
Procedure: 2.14. Peroxynitrite (ONOO^−) Scavenging Activity Assay
Peroxynitrite-scavenging activities were determined as described by Kooy et al. with modification. This method monitors the fluorescence of rhodamine 123, which is formed rapidly when non-fluorescent DHR 123 (dihydrorhodamine 123) (Molecular Probes, Eugene, OR, USA) in the presence of peroxynitrite. The rhodamine buffer solution (pH 7.4) included of 50 mM sodium phosphate, 90 mM sodium chloride, 5 mM potassium chloride, and 100 µM DTPA. The final concentration of DHR 123 was 5 µM. In this assay, the buffer solution was prepared prior to use and then stood on ice. Test compounds (10 µL, final concentrations: 5, 10, and 20 µM) dissolved in DMSO and added to 10 µL SIN-1 (10 µM) and 180 µL rhodamine buffer solution in the wells of a black 96-well plate. Fluorescence intensities of oxidized DHR 123 were measured using a fluorescence plate reader (Berthold Advances GmbH & Co., Bad Wildbad, Germany) with an excitation and emission wavelengths of 485 and 535 nm, respectively. Peroxynitrite scavenging activity was calculated after subtracting background fluorescence from final fluorescence intensity. Results are expressed as means ± standard deviation (SD), and L-penicillamine was used as a positive control.
Several RNS (reactive nitrogen species), including peroxynitrite (ONOO^–) and nitric oxide, are known to be involved in the induction of the melanogenesis. Therefore, we investigated the effects of analogs 1–8 on peroxynitrite scavenging activity using DHR123 (dihydrorhodamine) as a ROS indicator and SIN–1 as an RNS generator. Peroxynitrite generated by SIN–1 oxidizes DHR123 to rhodamine 123, a fluorescent compound. Thus, the effects of analogs on peroxynitrite scavenging ability were determined by measuring rhodamine 123 fluorescence.

[3] = ABTS cation radical scavenging activity assay; details: test sample 100 µM, 2 min in the dark
Procedure: 2.12. ABTS Cation Radical Scavenging Activity Assay
The free radical scavenging activities of analogs 1–8 and Trolox were determined using an ABTS radical cation decolorization assay (SEJIN CI Co., Seoul, Korea), as previously described with minor modification. Trolox was used as the positive control. ABTS radicals were produced by adding 10 mL of 7 mM ABTS in distilled water to 10 mL of 2.45 mM aqueous potassium persulfate solution. The mixture was kept in the dark for 12–16 h at RT until the reaction was complete and absorbance had stabilized. The prepared free radical solution was then diluted with methyl alcohol so that the optical density at 734 nm was 0.70 ± 0.02. Test samples (10 µL, final concentration at 100 µM) dissolved in EtOH/DMSO (9:1 v/v) were added to the diluted free radical solution (90 µL) in a 96-well plate. After standing at RT for 2 min in the dark, well absorbances were measured at 734 nm, and ABTS radical scavenging activities were calculated using the following formula:ABTS free radical scavenging activity (%) = (Ac − As) × 100/Ac(2) where Ac indicates the absorbance of the non-treated control, and As indicates the absorbances of test samples. Experiments were conducted independently 3 times.
The ABTS (2,2′-azino-bis(3-ethylbenzothiazoline-6-sulfonic acid)) cation radical scavenging assay is also commonly used to evaluate antioxidant effects. ABTS is converted to the ABTS radical cation by the transfer of one electron to potassium persulfate. Trolox was used as the positive control, and assays were performed at a test sample (analogs 1–8 and Trolox) concentration of 100 µM. The ABTS radical solution obtained by a reaction of ABTS with potassium persulfate was mixed with test samples and left in the dark for 2 min. ABTS radical scavenging abilities were evaluated by measuring absorbances at 734 nm. […] On the other hand, analog 1 with a 4-hydroxyphenyl group, and analogs 7 and 8 with bromo substituents on the β-phenyl ring weakly scavenged the ABTS radical (16.6–24.8% scavenging). […] Furthermore, the results for ABTS and DPPH radical scavenging activities were similar.

IC50 (mushroom tyrosinase)	Compound	DPPH radical scavenging activity [1]	peroxynitrite scavenging compared with penicillamine [2]	ABTS radical scavenging activity [3]
39.7 ± 3.43 µM	O=C1/C(=C/c2ccc(O)c(O)c2)SC(=S)N1C1CCCCC1 [Analog 2, (Z)-3-Cyclohexyl-5-(3,4-dihydroxybenzylidene)-2-thioxothiazolidin-4-one]	92%	much more potently than penicillamine	81.0%
10.6 ± 2.92 µM	O=C1/C(=C/c2ccc(O)cc2O)SC(=S)N1C1CCCCC1 [Analog 3, (Z)-3-Cyclohexyl-5-(2,4-dihydroxybenzylidene)-2-thioxothiazolidin-4-one]	73%	much more potently than penicillamine	72.1%
